Values after ≈ are worked out from the molar mass of the structure shown.

The record followed here is patent US20240270762A1, “PENICILLIN-BINDING PROTEIN INHIBITORS” (priority 2021, published 2024).

For one assay, the system named is A. baumannii ATCC 19606. The experiment in a line: microbe, parasite or virus in culture. The class given is cell-based. The note with it: Acinetobacter baumannii, ATCC19606, read-out: MIC, A. baumannii ATCC 19606.
The next assay relates to N. gonorrhoeae CDC-0197. Nature of the assay: Liquid broth MIC in Fastidious broth. The note with it: Neisseria gonorrhoeae, CDC0197, read-out: Minimum Inhibitory Concentration (MIC), N. gonorrhoeae CDC-0197.
The subject of a further assay is K. pneumoniae SI-117. The experiment in a line: microbe, parasite or virus in culture. The note with it: Klebsiella pneumoniae, SI117, read-out: MIC K. pneumoniae SI-117. Format: cell-based.
The subject of a further assay is P. aeruginosa ATCC 35151. The experiment in a line: microbe, parasite or virus in culture. Format: cell-based. To be noted: Pseudomonas aeruginosa, ATCC35151, read-out: MIC P. aeruginosa ATCC 35151.
Another assay has as its system N. gonorrhoeae WHO G. The experiment in a line: Liquid broth MIC in Fastidious broth. To be noted: Neisseria gonorrhoeae, read-out: Minimum Inhibitory Concentration (MIC), N. gonorrhoeae WHO G.
The test system of assay [1] is P. aeruginosa (ΔmexAB-oprM). The experiment in a line: Broth microdilution MIC in CAMHB. Format: cell-based. To be noted: Pseudomonas aeruginosa; read-out: MIC P. aeruginosa ΔmexAB-oprM. In general terms: In broth dilution the organism is exposed to a series of concentrations in liquid medium.
Another assay relates to E. coli 901C. Nature of the assay: microbe, parasite or virus in culture. Format: cell-based. To be noted: Escherichia coli, read-out: MIC E. coli 901C.
A further assay deals with N. gonorrhoeae WHO K. Nature of the assay: Liquid broth MIC in Fastidious broth. To be noted: Neisseria gonorrhoeae, read-out: Minimum Inhibitory Concentration (MIC), N. gonorrhoeae WHO K.
For the next assay, the system named is N. gonorrhoeae WHO X. The experiment in a line: Liquid broth MIC in Fastidious broth. The note with it: Neisseria gonorrhoeae, read-out: Minimum Inhibitory Concentration (MIC), N. gonorrhoeae WHO X.
Another assay concerns E. coli ATCC 25922. The experiment in a line: microbe, parasite or virus in culture. Format: cell-based. The note with it: Escherichia coli, ATCC25922, read-out: MIC E. coli 25922.
The test system of the next assay is N. gonorrhoeae WHO Q. Nature of the assay: Liquid broth MIC in Fastidious broth. To be noted: Neisseria gonorrhoeae, read-out: Minimum Inhibitory Concentration (MIC), N. gonorrhoeae WHO Q.
For a further assay, the system named is N. gonorrhoeae WHO L. The experiment in a line: Liquid broth MIC in Fastidious broth. To be noted: Neisseria gonorrhoeae, read-out: Minimum Inhibitory Concentration (MIC), N. gonorrhoeae WHO L.

Experimental for N. gonorrhoeae CDC-0197: ATCC 49226, FA1090, MS11, WHO G, WHO L, and WHO M produce wild type or wild-type like PBP2. WHO K, WHO X, WHO Z, WHO Q, and CDC-0197 produce mosaic PBP2. Liquid broth-based assays were used for antibacterial testing of PBP inhibitors in Neisseria gonorrhoeae. Briefly, cryo-preserved bacterial cultures of clinical strains were streaked for isolation on Chocolate Agar (72 g/L (2×) GC Agar Base (BD #228950) and 2% (2×) Hemoglobin was autoclaved at 121° C. for 20 minutes to sterilize. Once cooled to ˜50° C. the 2×GC Agar Base and 2× Hemoglobin solutions are combined and 1% IsoVitaleX Enrichment (BD #211876) was added to the solution). Strains were incubated at 36° C. and 5% CO2 to allow growth of colonies, 24 hours before inoculum preparation. 2-fold serial dilutions of test compounds were conducted in a 96 well plate with a final volume of 75 μL per well at 2-fold the final desired concentration in Fastidious broth (Remel #R07664). For preparation of assay inoculum, a direct suspension was prepared by aseptically swabbing 10-15 colonies from agar plates into culture tubes containing 2 mL of fresh sterile saline. After the dilution plates were set up, direct suspensions were then diluted in a cuvette containing sterile saline and the optical density was measured at 600 nm. Inocula were diluted such that 75 μL of this culture in Fastidious broth results in a starting bacterial concentration of 5×10^5 CFU/mL when added to the dilution plates. The plates were incubated for ˜24 hours at 36° C. and 5% CO2.
Experimental for N. gonorrhoeae WHO G: Additional antibacterial testing of the series was performed in 8 reference strains of N. gonorrhoeae (ATCC 49226, FA1090, MS 11, WHO G, WHO L, WHO M, WHO K, WHO X, WHO Z, WHO Q, CDC-0197). ATCC 49226, FA1090, MS11, WHO G, WHO L, and WHO M produce wild type or wild-type like PBP2. WHO K, WHO X, WHO Z, WHO Q, and CDC-0197 produce mosaic PBP2. Liquid broth-based assays were used for antibacterial testing of PBP inhibitors in Neisseria gonorrhoeae. Briefly, cryo-preserved bacterial cultures of clinical strains were streaked for isolation on Chocolate Agar (72 g/L (2×) GC Agar Base (BD #228950) and 2% (2×) Hemoglobin was autoclaved at 121° C. for 20 minutes to sterilize. Once cooled to ˜50° C. the 2×GC Agar Base and 2× Hemoglobin solutions are combined and 1% IsoVitaleX Enrichment (BD #211876) was added to the solution). Strains were incubated at 36° C. and 5% CO2 to allow growth of colonies, 24 hours before inoculum preparation. 2-fold serial dilutions of test compounds were conducted in a 96 well plate with a final volume of 75 μL per well at 2-fold the final desired concentration in Fastidious broth (Remel #R07664). For preparation of assay inoculum, a direct suspension was prepared by aseptically swabbing 10-15 colonies from agar plates into culture tubes containing 2 mL of fresh sterile saline. After the dilution plates were set up, direct suspensions were then diluted in a cuvette containing sterile saline and the optical density was measured at 600 nm. Inocula were diluted such that 75 μL of this culture in Fastidious broth results in a starting bacterial concentration of 5×10^5 CFU/mL when added to the dilution plates. The plates were incubated for ˜24 hours at 36° C. and 5% CO2.
Experimental for N. gonorrhoeae WHO K: Liquid broth-based assays were used for antibacterial testing of PBP inhibitors in Neisseria gonorrhoeae. Briefly, cryo-preserved bacterial cultures of clinical strains were streaked for isolation on Chocolate Agar (72 g/L (2×) GC Agar Base (BD #228950) and 2% (2×) Hemoglobin was autoclaved at 121° C. for 20 minutes to sterilize. Once cooled to ˜50° C. the 2×GC Agar Base and 2× Hemoglobin solutions are combined and 1% IsoVitaleX Enrichment (BD #211876) was added to the solution). Strains were incubated at 36° C. and 5% CO2 to allow growth of colonies, 24 hours before inoculum preparation. 2-fold serial dilutions of test compounds were conducted in a 96 well plate with a final volume of 75 μL per well at 2-fold the final desired concentration in Fastidious broth (Remel #R07664). For preparation of assay inoculum, a direct suspension was prepared by aseptically swabbing 10-15 colonies from agar plates into culture tubes containing 2 mL of fresh sterile saline. After the dilution plates were set up, direct suspensions were then diluted in a cuvette containing sterile saline and the optical density was measured at 600 nm. Inocula were diluted such that 75 μL of this culture in Fastidious broth results in a starting bacterial concentration of 5×10^5 CFU/mL when added to the dilution plates. The plates were incubated for ˜24 hours at 36° C. and 5% CO2.

In the case of `O=C(O)c1cccc2c1OB(O)[C@@H](NC(=O)[C@H](NC(=O)c1c[nH]ccc1=O)c1ccc(P(=O)(O)O)cc1)C2` [Example 175, (R)-2-hydroxy-3-((R)-2-(4-oxo-1,4-dihydropyridine-3-carboxamido)-2-(4-phosphonophenyl)acetamido)-3,4-dihydro-2H-benzo[e][1,2]oxaborinine-8-carboxylic acid], the MIC with A. baumannii ATCC 19606 is more than 128 µg/mL; in the assay on N. gonorrhoeae CDC-0197 it was 4 to 8 µg/mL (≈ 7.39 to 14.8 µM); in the assay with K. pneumoniae SI-117, 32 to 64 µg/mL (≈ 59.1 to 118 µM); with P. aeruginosa ATCC 35151 it was less than 1 µg/mL; with N. gonorrhoeae WHO G it was 1 to 2 µg/mL (≈ 1.85 to 3.7 µM); in assay [1], 8 to 16 µg/mL (≈ 14.8 to 29.6 µM). The MIC lay in the range of 2 to 4 µg/mL (≈ 3.7 to 7.39 µM) in the assay on E. coli 901C; 16 to 32 µg/mL (≈ 29.6 to 59.1 µM) in the assay with N. gonorrhoeae WHO K; 16 to 32 µg/mL (≈ 29.6 to 59.1 µM) in the assay on N. gonorrhoeae WHO X; 32 to 64 µg/mL (≈ 59.1 to 118 µM) with E. coli ATCC 25922; 4 to 8 µg/mL (≈ 7.39 to 14.8 µM) in the assay on N. gonorrhoeae WHO Q; 16 to 32 µg/mL (≈ 29.6 to 59.1 µM) with N. gonorrhoeae WHO L.

For `O=C(O)c1cccc2c1OB(O)[C@@H](NC(=O)[C@H](NC(=O)c1cccn(C(F)F)c1=O)c1ccc(P(=O)(O)O)cc1)C2` (single isomer, unassigned) [Example 191], the MIC in the assay with A. baumannii ATCC 19606 was more than 128 µg/mL; in the assay on N. gonorrhoeae CDC-0197 it was 1 to 2 µg/mL (≈ 1.69 to 3.38 µM); in the assay with K. pneumoniae SI-117 it was more than 128 µg/mL; in the assay on P. aeruginosa ATCC 35151, less than 1 µg/mL; in the assay with N. gonorrhoeae WHO G it was less than 1 µg/mL; in assay [1], 8 to 16 µg/mL (≈ 13.5 to 27.1 µM). Also, the MIC is less than 1 µg/mL with E. coli 901C; 4 to 8 µg/mL (≈ 6.77 to 13.5 µM) in the assay on N. gonorrhoeae WHO K; 16 to 32 µg/mL (≈ 27.1 to 54.1 µM) in the assay on N. gonorrhoeae WHO X; more than 128 µg/mL in the assay on E. coli ATCC 25922; 1 to 2 µg/mL (≈ 1.69 to 3.38 µM) in the assay on N. gonorrhoeae WHO Q; 4 to 8 µg/mL (≈ 6.77 to 13.5 µM) in the assay on N. gonorrhoeae WHO L.

With `O=C(O)c1cccc2c1OB(O)[C@@H](NC(=O)C(NC(=O)C(F)(F)F)c1ccc(P(=O)(O)O)cc1)C2` (stereo partly drawn) [Example 172, (3R)-2-hydroxy-3-(2-(4-phosphonophenyl)-2-(2,2,2-trifluoroacetamido)acetamido)-3,4-dihydro-2H-benzo[e][1,2]oxaborinine-8-carboxylic acid], the MIC in the assay on A. baumannii ATCC 19606 is more than 128 µg/mL; in the assay with N. gonorrhoeae CDC-0197, 16 to 32 µg/mL (≈ 31 to 62 µM); in the assay with K. pneumoniae SI-117 it was more than 128 µg/mL; in the assay with P. aeruginosa ATCC 35151, 32 to 64 µg/mL (≈ 62 to 124 µM); with N. gonorrhoeae WHO G, 16 to 32 µg/mL (≈ 31 to 62 µM); in assay [1], more than 128 µg/mL. For the same compound, the MIC in the assay with E. coli 901C was 32 to 64 µg/mL (≈ 62 to 124 µM); in the assay on N. gonorrhoeae WHO K, 16 to 32 µg/mL (≈ 31 to 62 µM); with N. gonorrhoeae WHO X it was 16 to 32 µg/mL (≈ 31 to 62 µM); in the assay with E. coli ATCC 25922, more than 128 µg/mL; in the assay with N. gonorrhoeae WHO Q it was 16 to 32 µg/mL (≈ 31 to 62 µM); in the assay with N. gonorrhoeae WHO L, 16 to 32 µg/mL (≈ 31 to 62 µM).

Take `CN1CCC[C@H]1C(=O)NC(C(=O)N[C@H]1Cc2cccc(C(=O)O)c2OB1O)c1ccc(P(=O)(O)O)cc1` (stereo partly drawn) [Example 66]: the MIC was more than 128 µg/mL in the assay with A. baumannii ATCC 19606; 16 to 32 µg/mL (≈ 30.1 to 60.2 µM) in the assay with N. gonorrhoeae CDC-0197; more than 128 µg/mL in the assay on K. pneumoniae SI-117; 8 to 16 µg/mL (≈ 15.1 to 30.1 µM) in the assay with P. aeruginosa ATCC 35151; 4 to 8 µg/mL (≈ 7.53 to 15.1 µM) in the assay on N. gonorrhoeae WHO G; 32 to 64 µg/mL (≈ 60.2 to 120 µM) in assay [1]. The MIC was 32 to 64 µg/mL (≈ 60.2 to 120 µM) in the assay on E. coli 901C; 16 to 32 µg/mL (≈ 30.1 to 60.2 µM) with N. gonorrhoeae WHO K; 16 to 32 µg/mL (≈ 30.1 to 60.2 µM) with N. gonorrhoeae WHO X; more than 128 µg/mL with E. coli ATCC 25922; 16 to 32 µg/mL (≈ 30.1 to 60.2 µM) in the assay with N. gonorrhoeae WHO Q; 16 to 32 µg/mL (≈ 30.1 to 60.2 µM) in the assay with N. gonorrhoeae WHO L.
